US10173968B2, “Bishydrazone-based antifungal agents” (University of Kentucky Research Foundation, priority 2016, dated 2019)
Where “and” joins values, the source holds several entries; their conditions need not be identical. Equal entries are not always repeated. Where two headings read alike, the source gives them in different places.

Experiments:
K. pneumoniae ATCC 27736 = assay: Antibacterial MIC, double-dilution method; type: cell-based; conditions: Klebsiella pneumoniae, ATCC27736
Experimental: (§1) MIC values were determined against a variety of Gram-positive (strains A-D) and Gram-negative (E-J) bacterial and mycobacterial (K) strains using the double-dilution method, as previously published. Preliminary screening was performed using 500 μM of each compound.

VRE = assay: Antibacterial MIC, double-dilution method; type: cell-based; conditions: Enterococcus, strain D, Gram-positive, read-out: MIC
Experimental: as §1

P. aeruginosa ATCC 27853 = assay: Antibacterial MIC, double-dilution method; type: cell-based; conditions: Pseudomonas aeruginosa, ATCC27853
Experimental: as §1

B. subtilis 168 = assay: Antibacterial MIC, double-dilution method; type: cell-based; conditions: Bacillus subtilis, strain A, Gram-positive
Experimental: as §1

E. cloacae ATCC 13047 = assay: Antibacterial MIC, double-dilution method; type: cell-based; conditions: Enterobacter cloacae, ATCC13047
Experimental: as §1

S. enterica ATCC 14028 = assay: Antibacterial MIC, double-dilution method; type: cell-based; conditions: Salmonella enterica, ATCC14028, strain J, Gram-negative, read-out: MIC
Experimental: as §1

MRSA = assay: Antibacterial MIC, double-dilution method; type: cell-based; conditions: Staphylococcus aureus, strain C, Gram-positive, read-out: MIC
Experimental: as §1

E. coli MC1061 = assay: Antibacterial MIC, double-dilution method; type: cell-based; conditions: Escherichia coli, strain G, Gram-negative, read-out: MIC
Experimental: as §1

[1] = tested on: L. monocytogenes ATCC 19115; assay: Antibacterial MIC, double-dilution method; type: cell-based; conditions: Listeria monocytogenes, ATCC19115, strain B, Gram-positive, read-out: MIC
Experimental: as §1

M. smegmatis MC2-155 = assay: Antibacterial MIC, double-dilution method; type: cell-based; conditions: Mycolicibacterium smegmatis, MC2155, strain K, mycobacterial
Experimental: as §1

A. baumannii ATCC 19606 = assay: Antibacterial MIC, double-dilution method; type: cell-based; conditions: Acinetobacter baumannii, ATCC19606
Experimental: as §1

[2] = tested on: all bacterial strains tested; assay: Antibacterial MIC, summary over the panel; type: cell-based
Experimental: as §1

[3] = Mammalian cell cytotoxicity, resazurin; type: cell-based; conditions: human
Experimental: Another important aspect to consider during the development of antimicrobial agents is their potential toxicity towards mammalian cells. Having established the potent antimicrobial activities of the bis(N-amidino)hydrazones and N-amidino-N′-aryl-bishydrazones against bacteria and fungi, the toxicity profile of these compounds was determined against two mammalian cell lines (A549 and BEAS-2B; FIGS. 4A-B). […]. Cytotoxicity assays were performed as previously described. The human lung carcinoma epithelial cells A549 and the normal human bronchial epithelial cells BEAS-2B were grown in F12-K and DMEM medium containing 10% fetal bovine serum (FBS) and 1% antibiotics, respectively. The confluent cells were trypsinized with 0.05%-trypsin-0.53 mM EDTA, centrifuged (1,200 rpm) and resuspended in fresh medium (F12-K or DMEM). The cells were seeded into 96-well microtiter plates at a density of 3,000 cells/well and were grown overnight. […] Triton X-100® (0.5%, v/v) gave complete loss of cell viability and was used as the positive control. The percent cell survival was calculated as: (test value/control value)×100, where control value represents cells+resazurin−drug, and test value represents cells+resazurin+drug.

C. albicans ATCC 64124 = assay: Antifungal MIC, CLSI M27-A3 microbroth dilution; type: cell-based, Candida albicans; conditions: Candida albicans, ATCC64124, C. albicans ATCC 64124, resistant to FLC, ITC, and VOR, read-out: MIC
Experimental: (§2) In vitro MIC testing was performed according to the CLSI M27-A3 standard microbroth dilution methodology for the susceptibility testing of yeasts with minor modifications.

C. albicans ATCC 1237 = assay: Antifungal MIC, CLSI M27-A3 microbroth dilution; type: cell-based, Candida albicans; conditions: Candida albicans, ATCC1237, C. albicans ATCC 1237, resistant to FLC, ITC, and VOR, read-out: MIC
Experimental: as §2

C. albicans ATCC 1003 = assay: Antifungal MIC, CLSI M27-A3 microbroth dilution; type: cell-based, Candida albicans; conditions: Candida albicans, ATCC1003, read-out: MIC
Experimental: as §2

C. albicans ATCC 90819 = assay: Antifungal MIC, CLSI M27-A3 microbroth dilution; type: cell-based, Candida albicans; conditions: Candida albicans, ATCC90819, C. albicans ATCC 90819, resistant to FLC, ITC, and VOR, read-out: MIC
Experimental: as §2

C. albicans ATCC 2310 = assay: Antifungal MIC, CLSI M27-A3 microbroth dilution; type: cell-based, Candida albicans; conditions: Candida albicans, ATCC2310, C. albicans ATCC 2310, susceptible to FLC, ITC, and VOR, read-out: MIC
Experimental: as §2

C. albicans ATCC 2876 = assay: Antifungal MIC, CLSI M27-A3 microbroth dilution; type: cell-based, Candida albicans; conditions: Candida albicans, ATCC2876, C. albicans ATCC 2876, susceptible to FLC, ITC, and VOR, read-out: MIC
Experimental: as §2

C. albicans ATCC 10231 = assay: Antifungal MIC, CLSI M27-A3 microbroth dilution; type: cell-based, Candida albicans; conditions: Candida albicans, ATCC10231, C. albicans ATCC 10231, resistant to FLC, ITC, and VOR, read-out: MIC
Experimental: as §2

[4] = tested on: C. albicans strains (panel of seven); assay: Antifungal MIC, summary over the panel; type: cell-based, Candida albicans; conditions: Candida albicans; all, most or majority of the fungal strains; read-out: MIC, span over C. albicans strains
Experimental: In vitro MIC testing was performed according to the CLSI M27-A3 standard microbroth dilution methodology for the susceptibility testing of yeasts with minor modifications. […] MIC values were read visually for all tested compounds, and the endpoint was determined as the minimum concentration of compound that yielded complete inhibition relative to growth control.

[5] = strain H, Gram-negative, range 0.5 to 500 μM, read-out: MIC
[6] = strain I, Gram-negative, range 0.5 to 500 μM, read-out: MIC
[7] = strain F, Gram-negative, range 0.5 to 500 μM, read-out: MIC
[8] = converted from μM, read-out: MIC
[9] = range 0.5 to 500 μM, read-out: MIC
[10] = strain E, Gram-negative, range 0.5 to 500 μM, read-out: MIC
[11] = read-out: MIC, span over all bacterial strains tested
[12] = C. albicans ATCC 1003, converted from μg/mL
[13] = strain I, Gram-negative, converted from μM, read-out: MIC
[14] = strain F, Gram-negative, converted from μM, read-out: MIC
[15] = strain H, Gram-negative, converted from μM, read-out: MIC
[16] = strain E, Gram-negative, converted from μM, read-out: MIC

Row | Structure (SMILES) | MIC (K. pneumoniae ATCC 27736; [5]) [µM] | MIC (VRE; converted from μM) [µg/mL] | MIC (VRE; range 0.5 to 500 μM) [µM] | MIC (P. aeruginosa ATCC 27853; [6]) [µM] | MIC (B. subtilis 168; converted from μM) [µg/mL] | MIC (B. subtilis 168; range 0.5 to 500 μM) [µM] | MIC (E. cloacae ATCC 13047; [7]) [µM] | MIC (S. enterica ATCC 14028; converted from μM) [µg/mL] | MIC (S. enterica ATCC 14028; range 0.5 to 500 μM) [µM] | MIC (MRSA; converted from μM) [µg/mL] | MIC (MRSA; range 0.5 to 500 μM) [µM] | MIC (E. coli MC1061; converted from μM) [µg/mL] | MIC (E. coli MC1061; range 0.5 to 500 μM) [µM] | MIC ([1]; converted from μM) [µg/mL] | MIC ([1]; range 0.5 to 500 μM) [µM] | MIC (M. smegmatis MC2-155; [8]) [µg/mL] | MIC (M. smegmatis MC2-155; [9]) [µM] | MIC (A. baumannii ATCC 19606; [10]) [µM] | melting point [°C] | MIC (P. aeruginosa ATCC 27853; [13]) [µg/mL] | other results
1 | CC1(C)S[C@@H]2[C@H](NC(=O)[C@H](N)c3ccccc3)C(=O)N2[C@H]1C(=O)O [AMP, ampicillin, reference compound] | > 250 | 92.8 | 250 | > 250 | > 92.8 | > 250 | > 250 | 92.8 | 250 | 92.8 | 250 | > 92.8 | > 250 | 92.8 | 250 | > 92.8 | > 250 | > 250 |  |  | MIC (K. pneumoniae ATCC 27736): > 92.8 µg/mL; MIC (P. aeruginosa ATCC 27853): > 92.8 µg/mL; MIC (E. cloacae ATCC 13047): > 92.8 µg/mL; MIC (A. baumannii ATCC 19606): > 92.8 µg/mL; MIC [2, 11]: ≥ 250 µM
2 | Cl.N=C(N)N/N=C/c1ccc(-c2ccc(/C=N/Nc3ccc(F)cc3)cc2)cc1 [Compound 7Ac, (E)-2-((4′-((E)-(2-(4-Fluorophenyl)hydrazono)methyl)-[1,1′-biphenyl]-4-yl)methylene)hydrazine-1-carboximidamide monohydrochloride] |  |  |  |  |  |  |  |  |  |  |  |  |  |  |  |  |  |  | > 380 |  | IC50 at 24 h ([3]; BEAS-2B): 7.8 to 15.6 µg/mL; IC50 at 24 h ([3]; A549, 24 h): 7.8 to 15.6 µg/mL; MIC ([2]; read-out: antibacterial MIC values): 0.4 to 3.3 µg/mL
3 | Cl.N#Cc1ccc(N/N=C/c2ccc(-c3ccc(/C=N/NC(=N)N)cc3)cc2)cc1 [Compound 7Ae, (E)-2-((4′-((E and Z)-(2-(4-Cyanophenyl)hydrazono)methyl)-[1,1′-biphenyl]-4-yl)methylene)hydrazine-1-carboximidamide monohydrochloride] |  | 0.8 to 1.6 | 2 to 3.9 | 31.3 to 62.5 | 13.1 | 31.3 | 500 | 6.5 | 15.6 | 6.5 | 15.6 | 26.1 to 52.2 | 62.5 to 125 | 3.3 | 7.8 | 6.5 to 13.1 |  |  | 308 to 310 | 13.1 to 26.1 | MIC (C. albicans ATCC 64124; converted from μg/mL): 74.9 µM; MIC (C. albicans ATCC 64124): 31.3 µg/mL; MIC (C. albicans ATCC 1237; converted from μg/mL): 37.3 µM; MIC (C. albicans ATCC 1237): 15.6 µg/mL; MIC (C. albicans ATCC 1003; [12]): 18.7 µM; MIC (C. albicans ATCC 1003): 7.8 µg/mL; MIC (C. albicans ATCC 90819; converted from μg/mL): 37.3 µM; MIC (C. albicans ATCC 90819): 15.6 µg/mL; MIC (C. albicans ATCC 2310; converted from μg/mL): 37.3 µM; MIC (C. albicans ATCC 2310): 15.6 µg/mL; MIC (C. albicans ATCC 2876; converted from μg/mL): 37.3 µM; MIC (C. albicans ATCC 2876): 15.6 µg/mL; MIC (C. albicans ATCC 10231; converted from μg/mL): 37.3 µM; MIC (C. albicans ATCC 10231): 15.6 µg/mL; MIC (K. pneumoniae ATCC 27736): 15.6 µM to 31.3 µM and 6.5 µg/mL to 13.1 µg/mL; MIC (E. cloacae ATCC 13047; [14]): 209 µg/mL; MIC (M. smegmatis MC2-155; range 0.5 to 500 μM): 15.6 to 31.3 µM; MIC (A. baumannii ATCC 19606): 15.6 µM to 31.3 µM and 6.5 µg/mL to 13.1 µg/mL; MIC [4]: 7.8 to 15.6 µg/mL
4 | Cl.N=C(N)N/N=C/c1ccc(-c2ccc(/C=N/Nc3ccc(Cl)cc3Cl)cc2)cc1 [Compound 7Ag, (E)-2-((4′-((E)-(2-(2,4-dichlorophenyl)hydrazono)methyl)-[1,1′-biphenyl]-4-yl)methylene)hydrazine-1-carboximidamide hydrochloride] | > 500 | 3.6 | 7.8 | > 500 | > 231 | > 500 | > 500 | > 231 | > 500 | 3.6 | 7.8 | > 231 | > 500 | 3.6 | 7.8 | 1.8 | 3.9 | > 500 | 356 to 358 | > 231 | MIC (C. albicans ATCC 64124; converted from μg/mL): 67.8 µM; MIC (C. albicans ATCC 64124): 31.3 µg/mL; MIC (C. albicans ATCC 1237; converted from μg/mL): 33.8 µM; MIC (C. albicans ATCC 1237): 15.6 µg/mL; MIC (C. albicans ATCC 1003; [12]): 16.8 µM; MIC (C. albicans ATCC 1003): 7.8 µg/mL; MIC (C. albicans ATCC 90819; converted from μg/mL): 67.8 µM; MIC (C. albicans ATCC 90819): 31.3 µg/mL; MIC (C. albicans ATCC 2310; converted from μg/mL): 16.8 µM; MIC (C. albicans ATCC 2310): 7.8 µg/mL; MIC (C. albicans ATCC 2876; converted from μg/mL): 33.8 µM; MIC (C. albicans ATCC 2876): 15.6 µg/mL; MIC (C. albicans ATCC 10231; converted from μg/mL): 16.8 µM; MIC (C. albicans ATCC 10231): 7.8 µg/mL; MIC (K. pneumoniae ATCC 27736; [15]): > 231 µg/mL; MIC (E. cloacae ATCC 13047; [14]): > 231 µg/mL; MIC (A. baumannii ATCC 19606; [16]): > 231 µg/mL; MIC [4]: 7.8 to 15.6 µg/mL
5 | CC1COc2c(N3CCN(C)CC3)c(F)cc3c(=O)c(C(=O)O)cn1c23 (stereo not shown) [OFX, ofloxacin, reference compound] | 15.6 to 31.3 | 2.8 | 7.8 | 3.9 | ≤ 0.2 | ≤ 0.5 | ≤ 0.5 | 5.6 to 11.3 | 15.6 to 31.3 | 0.4 | 1 | 1.4 to 2.8 | 3.9 to 7.8 | 0.4 | 1 | 5.6 | 15.6 | ≤ 0.5 |  | 1.4 | MIC (K. pneumoniae ATCC 27736; [15]): 5.6 to 11.3 µg/mL; MIC (E. cloacae ATCC 13047; [14]): ≤ 0.2 µg/mL; MIC (A. baumannii ATCC 19606; [16]): ≤ 0.2 µg/mL; MIC [2, 11]: 0.5 to 31.3 µM
